Laboratory results reported in US20220160686A1, “MACROCYCLIC AZOLOPYRIDINE DERIVATIVES AS EED AND PRC2 MODULATORS” (Fulcrum Therapeutics, Inc., priority 2019, published 2022).
Read-outs that look alike come from different tables or passages of the source.

System: human P-glycoprotein HEK cells (HEK-P-gp)
Experiment: H3K27me3 immunocytochemistry assay in P-gp expressing HEK293T cells, with or without elacridar
Format: cell-based
Details: Homo sapiens, 4 days compound treatment
Procedure, shortened: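 HEK293T stably expressing human ABCB1 (vinblastine-selected), 1000 cells/well, treated with serially diluted compound for 4 days at 37° C, with or without 250 nM elacridar. Fixed cells stained with anti-H3K27me3 plus Alexa 488 secondary and Hoechst; imaged at 10×, nuclei identified by Hoechst.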

[1] = HEK293, 96 h, without elacridar, read-out: IC50, inhibitory activity on human P-glycoprotein HEK cells (HEK-P-gp)
[2] = HEK293, with 250 nM elacridar, read-out: IC50, inhibitory activity on human P-glycoprotein HEK cells (HEK-P-gp) pretreated with elacridar

Row | SMILES | IC50 [1] | IC50 [2]
1 | Cn1nccc1-c1cc2c(n3cc(C(N)=O)nc13)NCc1c(F)ccc3c1[C@@H](CO3)CO2 [Compound 175, (S)-5-fluoro-12-(1-methyl-1H-pyrazol-5-yl)-6,7,15,15a-tetrahydro-1H-benzofuro[4,3-fg]imidazo[r,2′:1,6]pyrido[3,2-b][1,4]oxazonine-10-carboxamide] | > 0.5 µM | 0.1 to 0.5 µM
2 | Cn1nc(F)cc1-c1cc2c(n3cnnc13)NCc1c(F)ccc3c1[C@@H](CO3)CO2 [Compound 168, (S)-12-fluoro-4-(3-fluoro-1-methyl-1H-pyrazol-5-yl)-7a,8,13,14-tetrahydro-7H-[1,2,4]triazolo[4′,3′:1,6]pyrido[3,2-b]benzofuro[4,3-fg][1,4]oxazonine] | < 0.025 µM | < 0.025 µM
3 | CC(=O)N1CCC(c2cc3c(n4cnnc24)NCc2cccc4c2[C@@H](CO4)CO3)CC1 [Compound 3, (S)-1-(4-(7a,8,13,14-tetrahydro-7H-[1,2,4]triazolo[4′,3′:1,6]pyrido[3,2-b]benzofuro[4,3-fg][1,4]oxazonin-4-yl)piperidin-1-yl)ethan-1-one] | > 0.5 µM | 0.1 to 0.5 µM
4 | Cn1nccc1-c1cc2c(n3cc(C#N)nc13)NCc1c(F)ccc3c1[C@@H](CO3)CO2 [Compound 172, (S)-5-fluoro-12-(1-methyl-1H-pyrazol-5-yl)-6,7,15,15a-tetrahydro-1H-benzofuro[4,3-fg]imidazo[r,2′:1,6]pyrido[3,2-b][1,4]oxazonine-10-carbonitrile] | 0.025 to 0.05 µM | 0.025 to 0.05 µM
5 | CC(=O)N1CCC(c2cc3c(n4cnnc24)NCc2c(F)cccc2CCO3)CC1 [Compound 4, 1-(4-(12-fluoro-7,8,13,14-tetrahydro-[1,2,4]triazolo[4′,3′:1,6]pyrido[3,2-b]benzo[f][1,4]oxazonin-4-yl)piperidin-1-yl)ethan-1-one] | > 0.5 µM | > 0.5 µM
6 | Cc1ncoc1-c1cc2c(n3cnnc13)NCc1c(F)ccc3c1[C@@H](CO3)CO2 [Compound 189, (S)-12-fluoro-4-(4-methyloxazol-5-yl)-7a,8,13,14-tetrahydro-7H-[1,2,4]triazolo[4′,3′:1,6]pyrido[3,2-b]benzofuro[4,3-fg][1,4]oxazonine] | < 0.025 µM | < 0.025 µM
7 | Fc1ccc2c3c1CNc1c(cc(Br)c4nncn14)OC[C@@H]3CO2 [Compound 165, (S)-4-bromo-12-fluoro-7a,8,13,14-tetrahydro-7H-[1,2,4]triazolo[4′,3′:1,6]pyrido[3,2-b]benzofuro[4,3-fg][1,4]oxazonine] | > 0.5 µM | > 0.5 µM
8 | Cc1ncccc1-c1cc2c(n3cnnc13)NCc1cccc3c1[C@H](CO3)CO2 [Compound 1, (15R)-10-(2-methyl-3-pyridyl)-13,17-dioxa-3,5,7,8-tetrazapentacyclo[13.6.1.04,12.05,9.018,22] docosa-1(22),4(12),6,8,10,18,20-heptaene] | 0.1 to 0.5 µM | < 0.025 µM
9 | Cc1ncc(-c2cc3c(n4cnnc24)NCc2c(F)cccc2CCO3)c(C)n1 [Compound 14, 4-(2,4-dimethylpyrimidin-5-yl)-12-fluoro-7,8,13,14-tetrahydro-[1,2,4]triazolo[4′,3′:1,6]pyrido[3,2-b]benzo[f][1,4]oxazonine] | > 0.5 µM | > 0.5 µM
10 | COc1ncc(-c2cc3c(n4cnnc24)NCc2c(F)ccc4c2[C@H](CO4)CO3)cn1 [Example 30] | 0.05 to 0.1 µM | 0.025 to 0.05 µM
11 | CN(CC(F)(F)F)C(=O)c1cc2c(n3cnnc13)NCc1c(F)ccc3c1C(CO3)CO2 (stereo not shown) [Example 38] | 0.05 to 0.1 µM | 0.1 to 0.5 µM
12 | COC(=O)N1CCC(c2cc3c(n4cnnc24)NCc2c(F)ccc4c2C(CO4)CO3)CC1 [Compound 16, methyl (S)-4-(12-fluoro-7a,8,13,14-tetrahydro-7H-[1,2,4]triazolo[4′,3′:1,6]pyrido[3,2-b]benzofuro[4,3-fg][1,4]oxazonin-4-yl)piperidine-1-carboxylate] | 0.1 to 0.5 µM | 0.05 to 0.1 µM
13 | Cn1nccc1-c1cc2c(n3cnnc13)NCc1c(F)ccc3c1C(CO3)CO2 (stereo not shown) [Example 17] | < 0.025 µM | < 0.025 µM
14 | Cc1cn(-c2cc3c(n4cnnc24)NCc2c(F)ccc4c2[C@@H](CO4)CO3)cn1 [Compound 15, (S)-12-fluoro-4-(4-methyl-1H-imidazol-1-yl)-7a,8,13,14-tetrahydro-7H-[1,2,4]triazolo[4′,3′:1,6]pyrido[3,2-b]benzofuro[4,3-fg][1,4]oxazonine] | 0.025 to 0.05 µM | < 0.025 µM
15 | Cc1ncc(-c2cc3c(n4cnnc24)NCc2c(F)ccc4c2[C@@H](CO4)CO3)c(C)n1 [Compound 13, (S)-4-(2,4-dimethylpyrimidin-5-yl)-12-fluoro-7a,8,13,14-tetrahydro-7H-[1,2,4]triazolo[4′,3′:1,6]pyrido[3,2-b]benzofuro[4,3-fg][1,4]oxazonine] | 0.025 to 0.05 µM | < 0.025 µM
16 | Cn1nc(C(C)(C)C#N)cc1-c1cc2c(n3cnnc13)NCc1c(F)ccc3c1[C@@H](CO3)CO2 [Compound 169, (S)-2-(5-(12-fluoro-7a,8,13,14-tetrahydro-7H-[1,2,4]triazolo[4′,3′:1,6]pyrido[3,2-b]benzofuro[4,3-fg][1,4]oxazonin-4-yl)-1-methyl-1H-pyrazol-3-yl)-2-methylpropanenitrile] | < 0.025 µM | < 0.025 µM
17 | Fc1ccc2c3c1CNc1c(cc(C4COC4)c4nncn14)OC[C@@H]3CO2 [Compound 12, (S)-12-fluoro-4-(oxetan-3-yl)-7a,8,13,14-tetrahydro-7H-[1,2,4]triazolo[4′,3′:1,6]pyrido[3,2-b]benzofuro[4,3-fg][1,4]oxazonine] | 0.05 to 0.1 µM | 0.025 to 0.05 µM
18 | CS(=O)(=O)c1ccc(-c2cc3c(n4cnnc24)NCc2c(F)ccc4c2C(CO4)CO3)cc1 (stereo not shown) [Example 36] | < 0.025 µM | < 0.025 µM
19 | Cn1nc(OC(F)F)cc1-c1cc2c(n3cnnc13)NCc1c(F)ccc3c1[C@@H](CO3)CO2 [Compound 167, (S)-4-(3-(difluoromethoxy)-1-methyl-1H-pyrazol-5-yl)-12-fluoro-7a,8,13,14-tetrahydro-7H-[1,2,4]triazolo[4′,3′:1,6]pyrido[3,2-b]benzofuro[4,3-fg][1,4]oxazonine] | < 0.025 µM | < 0.025 µM
20 | Cc1cc(C#N)ccc1-c1cc2c(n3cnnc13)NCc1c(F)ccc3c1[C@H](CO3)CO2 [Example 49] | 0.025 to 0.05 µM | < 0.025 µM
21 | Cc1ncccc1-c1cc2c(n3cnnc13)NCc1c(F)cccc1COC2 [Compound 6, 12-fluoro-4-(2-methylpyridin-3-yl)-6,8,13,14-tetrahydro-[1,2,4]triazolo[4′,3′:1,6]pyrido[3,2-c]benzo[g][1,5]oxazonine] | > 0.5 µM | > 0.5 µM
22 | Fc1cncnc1-c1cc2c(n3cnnc13)NCc1c(F)ccc3c1[C@@H](CO3)CO2 [Compound 164, (S)-12-fluoro-4-(5-fluoropyrimidin-4-yl)-7a,8,13,14-tetrahydro-7H-[1,2,4]triazolo[4′,3′:1,6]pyrido[3,2-b]benzofuro[4,3-fg][1,4]oxazonine] | < 0.025 µM | < 0.025 µM
23 | Cc1ncccc1-c1cc2c(n3cc(C(N)=O)nc13)NCc1c(F)ccc3c1[C@@H](CO3)CO2 [Compound 176, (S)-5-fluoro-12-(2-methylpyridin-3-yl)-6,7,15,15a-tetrahydro-1H-benzofuro[4,3-fg]imidazo[r,2′:1,6]pyrido[3,2-b][1,4]oxazonine-10-carboxamide] | > 0.5 µM | > 0.5 µM
24 | c1cc2c3c(c1)OC[C@H]3COc1ccc3nncn3c1NC2 [Compound 11, (S)-7a,8,13,14-tetrahydro-7H-[1,2,4]triazolo[4′,3′:1,6]pyrido[3,2-b]benzofuro[4,3-fg][1,4]oxazonine] | > 0.5 µM | > 0.5 µM
25 | Cc1ncccc1-c1cc2c(n3cnnc13)NCc1c(F)cccc1CCO2 [Compound 5, 12-fluoro-4-(2-methylpyridin-3-yl)-7,8,13,14-tetrahydro-[1,2,4]triazolo[4′,3′:1,6]pyrido[3,2-b]benzo[f][1,4]oxazonine] | > 0.5 µM | > 0.5 µM
26 | Cn1nc(C(F)(F)F)cc1-c1cc2c(n3cnnc13)NCc1c(F)ccc3c1[C@H](CO3)CO2 [Example 115] | 0.025 to 0.05 µM | < 0.025 µM
27 | Cn1cc(Cc2cc3c(n4cnnc24)NCc2cccc4c2[C@@H](CO4)CO3)cn1 [Compound 7, (S)-4-((1-methyl-1H-pyrazol-4-yl)methyl)-7a,8,13,14-tetrahydro-7H-[1,2,4]triazolo[4′,3′:1,6]pyrido[3,2-b]benzofuro[4,3-fg][1,4]oxazonine] | > 0.5 µM | 0.1 to 0.5 µM
28 | Cn1cc(Cc2cc3c(n4cnnc24)NCc2c(F)ccc4c2[C@@H](CO4)CO3)cn1 [Compound 10, (S)-12-fluoro-4-((1-methyl-1H-pyrazol-4-yl)methyl)-7a,8,13,14-tetrahydro-7H-[1,2,4]triazolo[4′,3′:1,6]pyrido[3,2-b]benzofuro[4,3-fg][1,4]oxazonine] | > 0.5 µM | 0.1 to 0.5 µM
29 | Cc1ncccc1-c1cc2c(n3cc(C#N)nc13)NCc1c(F)ccc3c1[C@@H](CO3)CO2 [Compound 186, (S)-5-fluoro-12-(2-methylpyridin-3-yl)-6,7,15,15a-tetrahydro-1H-benzofuro[4,3-fg]imidazo[1′,2′:1,6]pyrido[3,2-b][1,4]oxazonine-10-carbonitrile] | 0.05 to 0.1 µM | 0.025 to 0.05 µM
